Experimental data reported in patent US20240109865A1, “INDAZOLE COMPOUNDS AS KINASE INHIBITORS” (TYRA BIOSCIENCES, INC., priority 2020, published 2024).

How the values were obtained:
[1] = biological target: FGFR3-BAIAP2L1 Ba/F3 cells (Homo sapiens, UniProt P22607); assay: Ba/F3 cell viability assay (CellTiter-Glo 2.0), FGFR3-BAIAP2L1 Ba/F3; type: cell-based; settings: for Ba/F3 FGFR1/FGFR3 Selectivity: FGFR3 > FGFR1 selectivity ratio in Ba/F3 FGFR fusion cell based assays; for IC50: read-out: Ba/F3 Cells FGFR3 (IC50 nM), FGFR3-BAIAP2L1 Ba/F3 cells, 48 hours, Cell Titer Glo 2.0
Chain of FGFR3-BAIAP2L1 Ba/F3 cells (P22607 23-806 limits assumed, change not shown): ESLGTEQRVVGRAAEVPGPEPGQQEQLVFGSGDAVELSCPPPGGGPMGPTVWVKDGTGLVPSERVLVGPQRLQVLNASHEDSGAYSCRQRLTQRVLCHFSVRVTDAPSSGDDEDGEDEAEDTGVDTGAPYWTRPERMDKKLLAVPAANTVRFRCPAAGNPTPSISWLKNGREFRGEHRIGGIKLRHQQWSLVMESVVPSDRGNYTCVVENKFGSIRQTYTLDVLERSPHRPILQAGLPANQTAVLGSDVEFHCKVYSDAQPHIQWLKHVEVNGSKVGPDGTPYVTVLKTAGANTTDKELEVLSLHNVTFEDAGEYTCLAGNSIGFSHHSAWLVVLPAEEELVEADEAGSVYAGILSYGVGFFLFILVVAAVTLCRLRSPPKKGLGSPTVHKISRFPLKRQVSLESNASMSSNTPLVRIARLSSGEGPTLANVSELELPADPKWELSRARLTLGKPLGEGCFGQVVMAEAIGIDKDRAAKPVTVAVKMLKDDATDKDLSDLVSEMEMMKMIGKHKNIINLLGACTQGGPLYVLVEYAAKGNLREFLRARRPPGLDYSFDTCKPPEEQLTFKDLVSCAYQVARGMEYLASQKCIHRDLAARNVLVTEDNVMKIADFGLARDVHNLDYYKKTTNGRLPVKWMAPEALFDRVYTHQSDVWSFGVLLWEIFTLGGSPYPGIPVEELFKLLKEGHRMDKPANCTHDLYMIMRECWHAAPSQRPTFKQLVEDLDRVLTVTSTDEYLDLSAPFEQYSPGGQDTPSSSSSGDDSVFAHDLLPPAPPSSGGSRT
How it was run: (§1)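 IL3-independent Ba/F3 lines driven by FGFR1-BCR or FGFR3-BAIAP2L1 fusions, in RPMI1640/10% FBS. 9-dose 10-fold series from 30 μM, triplicate, 48 h at 37 °C; viability by CellTiter-Glo 2.0 ATP luminescence relative to DMSO control, IC50 from 4-parameter sigmoidal fit.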

[2] = biological target: FGFR3 (V555M) (Homo sapiens (Human), UniProt P22607, V555M); assay: Kinase assay, binding constants (Kd), kinase-tagged T7 phage, qPCR; settings: V555M mutant
Chain of FGFR3 (V555M) (P22607 23-806 V555M): as the sequence (P22607 23-806 limits assumed, change not shown) above, with V533M counted along it
How it was run: (§2)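 Competition binding: T7 phage-tagged kinase + biotin-ligand beads + compound (11 pts, 3-fold, 0.9% DMSO). Elution 30 min RT with free ligand; qPCR quantitation. Kd via Hill fit, slope −1.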

[3] = biological target: FGFR2 (Homo sapiens (Human), UniProt P21802); assay: as above
Chain of FGFR2 (P21802 22-821): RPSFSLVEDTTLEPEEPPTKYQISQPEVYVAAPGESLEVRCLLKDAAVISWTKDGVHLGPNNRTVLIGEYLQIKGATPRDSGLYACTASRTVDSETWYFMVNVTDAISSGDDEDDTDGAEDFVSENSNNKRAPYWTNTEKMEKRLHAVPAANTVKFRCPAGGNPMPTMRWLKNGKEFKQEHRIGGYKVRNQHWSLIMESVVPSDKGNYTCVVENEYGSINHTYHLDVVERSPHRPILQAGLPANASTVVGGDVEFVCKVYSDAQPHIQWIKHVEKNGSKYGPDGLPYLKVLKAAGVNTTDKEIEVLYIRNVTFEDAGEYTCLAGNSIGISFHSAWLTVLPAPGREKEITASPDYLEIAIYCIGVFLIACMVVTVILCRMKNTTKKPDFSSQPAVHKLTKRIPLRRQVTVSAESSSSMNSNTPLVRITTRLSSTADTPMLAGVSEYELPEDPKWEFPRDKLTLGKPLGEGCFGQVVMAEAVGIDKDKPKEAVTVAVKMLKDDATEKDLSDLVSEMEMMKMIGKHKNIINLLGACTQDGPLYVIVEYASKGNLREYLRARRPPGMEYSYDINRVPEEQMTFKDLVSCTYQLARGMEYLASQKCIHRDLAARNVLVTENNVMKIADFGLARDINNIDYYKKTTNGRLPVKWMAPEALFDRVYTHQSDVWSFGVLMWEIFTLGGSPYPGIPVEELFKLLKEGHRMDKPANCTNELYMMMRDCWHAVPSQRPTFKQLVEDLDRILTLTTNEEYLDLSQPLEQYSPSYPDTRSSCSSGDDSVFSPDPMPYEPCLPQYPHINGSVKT
How it was run: as §2

[4] = biological target: FGFR1 (Homo sapiens (Human), UniProt P11362); assay: as above
Chain of FGFR1 (P11362 22-822): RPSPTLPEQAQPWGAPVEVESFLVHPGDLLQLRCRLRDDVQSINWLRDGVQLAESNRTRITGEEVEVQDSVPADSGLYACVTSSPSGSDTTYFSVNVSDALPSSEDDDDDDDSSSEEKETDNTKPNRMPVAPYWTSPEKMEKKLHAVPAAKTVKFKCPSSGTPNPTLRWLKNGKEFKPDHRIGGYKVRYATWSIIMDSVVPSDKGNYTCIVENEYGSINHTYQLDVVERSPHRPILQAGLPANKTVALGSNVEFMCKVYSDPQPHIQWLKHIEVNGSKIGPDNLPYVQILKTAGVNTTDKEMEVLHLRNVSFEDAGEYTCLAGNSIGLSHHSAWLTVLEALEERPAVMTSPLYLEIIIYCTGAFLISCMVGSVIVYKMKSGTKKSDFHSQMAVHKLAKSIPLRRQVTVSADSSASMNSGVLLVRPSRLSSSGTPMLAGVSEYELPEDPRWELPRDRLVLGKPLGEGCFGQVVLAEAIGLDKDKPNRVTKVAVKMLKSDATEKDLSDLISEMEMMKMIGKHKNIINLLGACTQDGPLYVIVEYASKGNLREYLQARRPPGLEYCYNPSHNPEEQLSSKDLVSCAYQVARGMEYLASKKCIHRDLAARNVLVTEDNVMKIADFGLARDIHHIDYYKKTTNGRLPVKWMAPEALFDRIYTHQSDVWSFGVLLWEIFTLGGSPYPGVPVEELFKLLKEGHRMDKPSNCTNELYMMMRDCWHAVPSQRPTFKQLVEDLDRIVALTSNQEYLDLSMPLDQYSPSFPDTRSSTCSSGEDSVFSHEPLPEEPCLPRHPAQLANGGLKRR
How it was run: as §2

[5] = biological target: FGFR3 (Homo sapiens (Human), UniProt P22607); assay: as above
Chain of FGFR3 (P22607 23-806): as the sequence (P22607 23-806 limits assumed, change not shown) above
How it was run: as §2

[6] = biological target: FGFR4 (Homo sapiens (Human), UniProt P22455); assay: as above
Chain of FGFR4 (P22455 22-802): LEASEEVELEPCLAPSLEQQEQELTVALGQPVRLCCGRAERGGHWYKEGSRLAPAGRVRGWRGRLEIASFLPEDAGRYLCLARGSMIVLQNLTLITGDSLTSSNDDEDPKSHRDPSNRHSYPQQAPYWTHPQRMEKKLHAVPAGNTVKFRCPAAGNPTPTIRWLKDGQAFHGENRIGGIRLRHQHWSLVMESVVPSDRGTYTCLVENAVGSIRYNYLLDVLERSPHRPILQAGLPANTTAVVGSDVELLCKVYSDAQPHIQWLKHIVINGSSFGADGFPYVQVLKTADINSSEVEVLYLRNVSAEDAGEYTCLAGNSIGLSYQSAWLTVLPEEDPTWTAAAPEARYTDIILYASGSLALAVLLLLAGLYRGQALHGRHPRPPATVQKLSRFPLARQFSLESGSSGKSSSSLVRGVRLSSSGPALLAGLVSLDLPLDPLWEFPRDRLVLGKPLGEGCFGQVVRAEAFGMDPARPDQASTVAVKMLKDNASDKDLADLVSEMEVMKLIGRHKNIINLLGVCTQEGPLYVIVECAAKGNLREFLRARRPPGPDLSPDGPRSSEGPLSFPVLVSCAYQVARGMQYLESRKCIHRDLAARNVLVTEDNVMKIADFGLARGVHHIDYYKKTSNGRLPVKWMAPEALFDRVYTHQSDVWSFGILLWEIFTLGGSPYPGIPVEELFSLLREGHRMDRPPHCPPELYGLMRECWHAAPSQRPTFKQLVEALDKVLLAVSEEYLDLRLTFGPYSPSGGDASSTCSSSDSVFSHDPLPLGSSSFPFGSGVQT
How it was run: as §2

[7] = tested on: RT112/84 cells (FGFR3-fusion); assay: RT112/84 cancer cell line cell viability assay (CellTiter-Glo 2.0); type: cell-based; settings: Homo sapiens, 72 hours, Cell Titer Glo 2.0
Description: (§3) Experimental Purpose: To detect the change of intracellular ATP by Cell Titer-Glo® and to evaluate the inhibitory effect of the compounds on cancer cell lines by determining the in vitro IC50 value of the compounds.
(§4) Cell Titer-Glo® 2.0 Luminescent cell viability assay reagent was purchased from Promega (Madison, WI). RT112/84 and KG-1 cell lines were purchased from American Type Culture Collection (Manassas, VA). UM-UC-14 cell line was purchased from Sigma (St. Louis, MO). RT112/84, UM-UC-14, and KG-1 cells were cultured in RPMI1640 media supplemented with 10% fetal bovine serum. Cultures were maintained at 37° C. in a humidified atmosphere of 5% C02 and 95% air.
(§5) Cell Viability Assay Procedure: Cells were plated in 96-well clear bottom/white plates (Corning #3903) at 10,000 cells/well in 100 μl of media, incubated overnight. The next day, test compound DMSO stock solutions were made at 10 mM and 2 μM final concentration. Compounds were then added to cells in a 9-dose, 10-fold dilution series starting at 30 μM with an HP 300e Digital Dispenser (each dose was applied in triplicate). DMSO was backfilled to each well up to 301 nL total volume of test compound+DMSO, and a total of 301 nL DMSO was added to a control/no test compound well in triplicate. The cells in cell culture plates were incubated with the compounds at 37° C. and 5% C02 for 72 hours. Then 50 μl of Cell Titer Glo 2.0 reagent was added to each well of the cell culture plates. The contents were covered from light and mixed on an orbital shaker at room temperature for 10 min. Luminescence was recorded by a Synergy H1 Microplate Reader (Biotek, Winooski, VT). Cells were assessed as a percentage of DMSO only treated control cells. Curves were plotted and IC50 values were calculated using the GraphPad Prism 8 program based on a sigmoidal dose-response equation (4 parameter).

[8] = biological target: FGFR1-BCR Ba/F3 cells (Homo sapiens, UniProt P11362); assay: Ba/F3 cell viability assay (CellTiter-Glo 2.0), FGFR1-BCR Ba/F3; type: cell-based; settings: read-out: Ba/F3 Cells FGFR1 (IC50 nM), 48 hours, Cell Titer Glo 2.0
Chain of FGFR1-BCR Ba/F3 cells (P11362 22-822 limits assumed, change not shown): as the sequence (P11362 22-822) above
How it was run: as §1

[9] = tested on: KG-1 cells (FGFR1-fusion); assay: KG-1 cancer cell line cell viability assay (CellTiter-Glo 2.0); type: cell-based; settings: Homo sapiens, 72 hours, Cell Titer Glo 2.0
Description: as §3, §4, §5

Row | Compound | Ba/F3 FGFR1/FGFR3 Selectivity [1] | IC50 [1] [nM] | Kd [2] [nM] | Kd [3] [nM] | Kd [4] [nM] | Kd [5] [nM] | Kd [6] [nM] | IC50 [7] [nM] | IC50 [8] [nM] | IC50 [9] [nM]
1 | C[C@@H](Oc1ccc2[nH]nc(-c3ccc(N4CC5(CCN5C)C4)nc3)c2c1)c1c(Cl)cncc1Cl [Example 96, 5-[(1R)-1-(3,5-dichloro-4-pyridyl)ethoxy]-3-[6-(1-methyl-1,6-diazaspiro[3.3]heptan-6-yl)-3-pyridyl]-1H-indazole] | 13 | 1 to 20 | 1 to 20 | 1 to 20 | 1 to 20 | 1 to 20 | 1 to 20 | 1 to 20 | 20 to 100 | 20 to 100
2 | C[C@@H](Oc1ccc2[nH]nc(-c3cnn([C@H]4CCNC4)c3)c2c1)c1c(Cl)cncc1Cl [Example 88, 5-[(1R)-1-(3,5-dichloro-4-pyridyl)ethoxy]-3-[1-[(3S)-pyrrolidin-3-yl]pyrazol-4-yl]-1H-indazole] | 20 | 1 to 20 | 1 to 20 | 1 to 20 | 1 to 20 | 1 to 20 | 20 to 100 | 20 to 100 | 100 to 300 | 100 to 300
3 | C[C@@H](Oc1ccc2[nH]nc(-c3ccc(N4CCC5(CCC(=O)N5)CC4)nc3)c2c1)c1c(Cl)cncc1Cl [Example 29, 8-[5-[5-[(1R)-1-(3,5-dichloro-4-pyridyl)ethoxy]-1H-indazol-3-yl]-2-pyridyl]-1,8-diazaspiro[4.5]decan-2-one] | 19 | 1 to 20 | 1 to 20 | 1 to 20 | 1 to 20 | 1 to 20 | 1 to 20 | 1 to 20 | 100 to 300 | 20 to 100
4 | C[C@@H](Oc1ccc2[nH]nc(-c3ccc(N4CC5(CCN(S(C)(=O)=O)C5)C4)nc3)c2c1)c1c(Cl)cncc1Cl [Example 115, 5-[(1R)-1-(3,5-dichloro-4-pyridyl)ethoxy]-3-[6-(7-methylsulfonyl-2,7-diazaspiro[3.4]octan-2-yl)-3-pyridyl]-1H-indazole] | 14 | 1 to 20 | 1 to 20 | 1 to 20 | 1 to 20 | 1 to 20 | 1 to 20 | 1 to 20 | 20 to 100 | 100 to 300
5 | COC(=O)N1CCC2(CC1)CN(c1ccc(-c3n[nH]c4ccc(O[C@H](C)c5c(Cl)cncc5Cl)cc34)cn1)C2 [Example 125, methyl 2-[5-[5-[(1R)-1-(3,5-dichloro-4-pyridyl)ethoxy]-1H-indazol-3-yl]-2-pyridyl]-2,7-diazaspiro[3.5]nonane-7-carboxylate] | 16 | 1 to 20 | 1 to 20 | 20 to 100 | 20 to 100 | 1 to 20 | 1 to 20 | 1 to 20 | 100 to 300 | 100 to 300
6 | C[C@@H](Oc1ccc2[nH]nc(-c3cnc(N4CCC5(CCS(=O)(=O)C5)C4)nc3)c2c1)c1c(Cl)cncc1Cl (stereo partly drawn) [Example 127, 7-[5-[5-[(1R)-1-(3,5-dichloro-4-pyridyl)ethoxy]-1H-indazol-3-yl]pyrimidin-2-yl]-2λ^6-thia-7-azaspiro[4.4]nonane 2,2-dioxide] | 11 | 1 to 20 | 1 to 20 | 20 to 100 | 20 to 100 | 1 to 20 | 1 to 20 | 20 to 100 | 100 to 300 | 100 to 300
